Among the test systems are SF-539 CNS; BT-549 breast; HCC-2998 colon; HOP-62 NSCLC; HOP-92 NSCLC; MDA-MB-231 breast.
Holding throughout (test): NCI-60 cell line screen, 48 h

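How tested: cells in 96-well plates exposed to compound for 48 hours at five concentrations. The concentration for 50% growth inhibition is given as GI50. At the TGI there is no net growth.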 Where only a bound is given, the exact number is not on record here.

For `COc1cc(OC)c(C(=O)/C=C/c2cccc(C(F)(F)F)c2)c(OC)c1`, the GI50 in the assay on SF-539 CNS was 1.37 µM; in the assay with BT-549 breast, 1.08 µM; in the assay with HCC-2998 colon, 2.11 µM; in the assay with HOP-62 NSCLC, 1.56 µM; with HOP-92 NSCLC, 1.02 µM; in the assay on MDA-MB-231 breast, 1.76 µM. The TGI came out at 3.5 µM with SF-539 CNS; 2.84 µM with BT-549 breast; 6.89 µM with HCC-2998 colon; 5.46 µM in the assay with HOP-62 NSCLC; 3.58 µM in the assay on HOP-92 NSCLC; 6.05 µM in the assay on MDA-MB-231 breast.

Turning to `CCc1nc(N)nc(N)c1-c1ccc(NC)c([N+](=O)[O-])c1`, the TGI in the assay on SF-539 CNS is greater than 100 µM; in the assay on BT-549 breast it was greater than 100 µM; in the assay with HCC-2998 colon, 65.7 µM; in the assay with HOP-62 NSCLC it was 37.7 µM; with HOP-92 NSCLC it was greater than 86.8 µM; in the assay on MDA-MB-231 breast, greater than 100 µM.

With `Nc1ccccc1C#C/C=C\C#Cc1ccccc1N`, the GI50 in the assay on SF-539 CNS was 10.1 µM; with BT-549 breast, 11.5 µM; in the assay with HCC-2998 colon, 0.0333 µM; in the assay on HOP-62 NSCLC it was 12.1 µM; in the assay with HOP-92 NSCLC, 1.2 µM; with MDA-MB-231 breast, 12.5 µM. Also, the TGI in the assay with SF-539 CNS is 26.6 µM; with BT-549 breast, 41.2 µM; in the assay on HCC-2998 colon, 24.4 µM; with HOP-62 NSCLC, 32.3 µM; in the assay on HOP-92 NSCLC it was 12.2 µM; in the assay with MDA-MB-231 breast, 30.4 µM.

With `CCCC(CCC)NCC(O)c1cc(-c2ccc(C(F)(F)F)cc2)nc(C(F)(F)F)c1` (configuration not stated), the GI50 in the assay on SF-539 CNS was 1.67 µM; with HCC-2998 colon, 1.68 µM; with HOP-62 NSCLC, 1.66 µM; with HOP-92 NSCLC it was 1.43 µM; with MDA-MB-231 breast, 1.53 µM. Further, the TGI in the assay on SF-539 CNS was 3.26 µM; with HCC-2998 colon, 3.1 µM; in the assay on HOP-62 NSCLC, 3.12 µM; in the assay on HOP-92 NSCLC it was 2.87 µM; with MDA-MB-231 breast, 3.17 µM.

In the case of `CN1CCc2nc(N)nc(-c3nc(N)nc4c3CN(C)CC4)c2C1`, the TGI in the assay with SF-539 CNS, in the assay with BT-549 breast, in the assay on HOP-62 NSCLC, with HOP-92 NSCLC and in the assay on MDA-MB-231 breast was greater than 100 µM throughout.

With `Cc1cc2ncnn2cc1Nc1ncc2c(n1)n(C1CCOCC1)c(=O)n2C`, the GI50 with SF-539 CNS was 9.63 µM; in the assay on BT-549 breast, 2.83 µM; in the assay with HCC-2998 colon, 6.56 µM; in the assay on HOP-62 NSCLC, 3.95 µM; in the assay with HOP-92 NSCLC, 2.01 µM; with MDA-MB-231 breast it was 5.3 µM. The TGI was 51.5 µM in the assay on SF-539 CNS; 32.2 µM with BT-549 breast; greater than 100 µM in the assay with HCC-2998 colon; 78.2 µM in the assay on HOP-62 NSCLC; 18.8 µM in the assay on HOP-92 NSCLC; greater than 100 µM with MDA-MB-231 breast.

For `Cc1ccc(NC(=O)c2cccc(C(C)(C)C#N)c2)cc1Nc1ccc2ncn(C)c(=O)c2c1`, the GI50 in the assay on SF-539 CNS was 3.32 µM; in the assay on BT-549 breast, 5.17 µM; in the assay with HCC-2998 colon it was 0.0676 µM; in the assay with HOP-62 NSCLC it was 1.11 µM; with HOP-92 NSCLC, 0.287 µM; with MDA-MB-231 breast it was less than 0.0239 µM. Besides, the TGI in the assay on SF-539 CNS is greater than 100 µM; in the assay on BT-549 breast it was greater than 100 µM; in the assay with HCC-2998 colon, greater than 100 µM; in the assay with HOP-62 NSCLC it was greater than 100 µM; in the assay on HOP-92 NSCLC, 4.98 µM; in the assay with MDA-MB-231 breast it was greater than 29 µM.

For the compound `CC(C)c1c(O)c(O)c2c(c1O)C(=O)C(O)=C1C(C)(C)CCC[C@@]12C`, the TGI in the assay with SF-539 CNS was 14.8 µM; in the assay with BT-549 breast it was 13 µM; in the assay with HCC-2998 colon it was 10.4 µM; with HOP-62 NSCLC it was greater than 100 µM; with HOP-92 NSCLC, 5.63 µM; in the assay with MDA-MB-231 breast, 7.29 µM.

Turning to `O=C(Nc1n[nH]c2cc(-c3ccccc3)ccc12)C1CC1`, the GI50 with SF-539 CNS is 13 µM; in the assay with BT-549 breast it was 15.5 µM; in the assay on HCC-2998 colon, 8.07 µM; with HOP-62 NSCLC, greater than 25 µM; in the assay with HOP-92 NSCLC it was greater than 25 µM; with MDA-MB-231 breast it was 14.7 µM. Moreover, the TGI in the assay on SF-539 CNS, in the assay with BT-549 breast, in the assay with HCC-2998 colon, in the assay on HOP-62 NSCLC, in the assay on HOP-92 NSCLC and with MDA-MB-231 breast was greater than 25 µM each time.

Turning to `COc1ccc(C(=O)c2cc(C)c(OC)c(C)c2)c(OC)c1O`, the GI50 is 0.0206 µM with SF-539 CNS; 0.0272 µM in the assay on BT-549 breast; 0.127 µM with HCC-2998 colon; 0.19 µM with HOP-62 NSCLC; 0.247 µM in the assay with HOP-92 NSCLC; 0.0587 µM in the assay on MDA-MB-231 breast. For the same compound, the TGI was 0.0532 µM in the assay on SF-539 CNS; greater than 62 µM in the assay with BT-549 breast; greater than 27.4 µM in the assay on HCC-2998 colon; greater than 100 µM in the assay with HOP-62 NSCLC; greater than 100 µM in the assay on HOP-92 NSCLC; greater than 100 µM in the assay on MDA-MB-231 breast.

`COc1ccc(C(=O)c2cc(C)c(OC)c(C)c2)cc1OC(=O)CCl`: the GI50 with SF-539 CNS is less than 0.01 µM; in the assay on BT-549 breast it was less than 0.01 µM; with HCC-2998 colon, 0.0391 µM; with HOP-62 NSCLC, less than 0.0191 µM; in the assay with HOP-92 NSCLC, 12.4 µM; with MDA-MB-231 breast, less than 0.0112 µM. Besides, the TGI in the assay with SF-539 CNS was less than 0.01 µM; in the assay with BT-549 breast, 40.5 µM; with HCC-2998 colon, greater than 79.2 µM; in the assay with HOP-62 NSCLC, greater than 100 µM; with HOP-92 NSCLC it was greater than 96.1 µM; in the assay on MDA-MB-231 breast, greater than 100 µM.

Turning to `COc1ccc(-c2cc(-c3cc(C)cc(Br)c3O)no2)cc1`, the TGI came to 25 µM in the assay on SF-539 CNS, 57.1 µM in the assay with BT-549 breast, 41.9 µM with HOP-62 NSCLC and 64.6 µM with MDA-MB-231 breast.

As for `COc1ccc(-c2[nH]c3ccc(OC)cc3c2/C=C(\C#N)S(=O)(=O)c2ccccc2)cc1`, the GI50 was 0.495 µM with SF-539 CNS; 4.51 µM in the assay with BT-549 breast; 1.95 µM in the assay with HCC-2998 colon; 2.97 µM in the assay with HOP-62 NSCLC; 0.692 µM in the assay on HOP-92 NSCLC; 1.32 µM with MDA-MB-231 breast. For the same compound, the TGI was 2.51 µM in the assay on SF-539 CNS; greater than 100 µM with BT-549 breast; 5.87 µM in the assay on HCC-2998 colon; 48.1 µM in the assay with HOP-62 NSCLC; 6.81 µM in the assay with HOP-92 NSCLC; greater than 30.7 µM in the assay on MDA-MB-231 breast.

In the case of `CCCCC(CC)COC(=O)C[N+](C)(C)CCOC(c1ccccc1)c1ccccc1` (configuration not stated), the GI50 was 2.32 µM in the assay on SF-539 CNS; 1.75 µM in the assay with HCC-2998 colon; 9.89 µM in the assay on HOP-62 NSCLC; 1.86 µM with HOP-92 NSCLC; 1.83 µM in the assay on MDA-MB-231 breast. For the same compound, the TGI came to 5.27 µM in the assay with SF-539 CNS; 3.29 µM in the assay with HCC-2998 colon; 28.6 µM in the assay on HOP-62 NSCLC; 4.9 µM with HOP-92 NSCLC; 3.88 µM in the assay on MDA-MB-231 breast.

The values above are taken from PubChem BioAssay (NCI).
